Key:
hPRB = molecular target: T1, hPRB (Homo sapiens, UniProt P06401); assay: PR transactivation assay (GRE2-Luc) in HEK293T cells transiently expressing hPRB; assay type: cell-based; set-up: expressed in transfected cells; host or cells: HEK 293T; conditions: APRn 1 μM
T1 sequence (P06401 1-933): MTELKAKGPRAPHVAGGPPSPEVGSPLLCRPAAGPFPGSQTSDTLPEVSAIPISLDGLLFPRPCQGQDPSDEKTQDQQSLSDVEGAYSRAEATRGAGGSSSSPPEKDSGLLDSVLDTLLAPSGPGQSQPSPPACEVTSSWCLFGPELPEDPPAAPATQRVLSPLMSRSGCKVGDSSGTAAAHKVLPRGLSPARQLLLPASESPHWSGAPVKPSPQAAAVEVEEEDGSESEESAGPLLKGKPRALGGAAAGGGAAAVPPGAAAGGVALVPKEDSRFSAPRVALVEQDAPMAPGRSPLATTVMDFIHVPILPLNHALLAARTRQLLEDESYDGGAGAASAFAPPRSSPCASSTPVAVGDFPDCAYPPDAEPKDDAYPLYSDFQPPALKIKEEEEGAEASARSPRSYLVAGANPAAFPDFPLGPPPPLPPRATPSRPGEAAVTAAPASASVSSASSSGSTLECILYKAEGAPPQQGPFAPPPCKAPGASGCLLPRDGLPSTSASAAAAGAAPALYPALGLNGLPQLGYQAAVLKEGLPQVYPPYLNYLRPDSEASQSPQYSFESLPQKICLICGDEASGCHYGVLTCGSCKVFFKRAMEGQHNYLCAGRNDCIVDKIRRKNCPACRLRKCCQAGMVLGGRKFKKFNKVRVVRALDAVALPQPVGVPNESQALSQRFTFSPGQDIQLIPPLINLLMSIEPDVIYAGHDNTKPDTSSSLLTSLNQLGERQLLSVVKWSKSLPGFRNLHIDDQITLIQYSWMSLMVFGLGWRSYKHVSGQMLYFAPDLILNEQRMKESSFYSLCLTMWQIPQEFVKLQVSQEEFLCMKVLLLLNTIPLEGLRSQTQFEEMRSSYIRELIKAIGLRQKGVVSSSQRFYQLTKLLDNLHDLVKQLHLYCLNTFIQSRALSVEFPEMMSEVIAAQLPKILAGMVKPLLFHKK
Method: PR Transactivation Assays in HEK 293T.
HEK 293T cells were routinely cultured in a high-glucose DMEM medium (Invitrogene, Cergy Pontoise, France), 20 mM HEPES, 2 mM glutamine, 1× non essential amino acids, 100 U/mL penicillin and 100 μg/mL streptomycin supplemented with 10% foetal calf serum (FCS) in a humidified atmosphere at 37° C. and with 5% CO2. One day before transfection, the cells were seeded at 3×10^6 cells/[…] diameter culture Petri dish and cultured overnight in the same medium. Six hours before transfection, the FCS supplemented medium was replaced by the same medium supplemented with 10% dextran-charcoal treated FCS. Transfections were carried out using the calcium phosphate precipitation method. The calcium phosphate precipitate was prepared with 0.5 μg pchPRB (Petit-Topin, et al Mol Pharmacol, 2009, 75, 1317), 7 μg reporter vector (GRE2-Luc from A. Biola-Vidamment and M. Pallardy) and 1 μg of pcβgal for an internal transfection control, in 1 mL 140 mM NaCl, 0.75 mM Na2HPO4, 25 mM HEPES, 125 mM CaCl2 pH 7.05 and added to the cells 30 minutes later. After 16 h incubation, the transfected cells were washed with PBS containing 2.5 mM EDTA, trypsinized and pooled. The transfected cells were replated in 24-well plates (100.000 transfected cells/well). […] Cells were lysed in 300 μl PBS 1×, 25 mM glycylglycine, 4 mM EDTA, 15% glycerol, 1% triton X-100, 15 mM MgSO4, pH 7.8 supplemented with 2 mM β-mercaptoethanol. The luciferase activities were quantified by using a Mithras LB940 reader microplates (Berthold).
The APRn “agonist efficacy” was determined from the following formula:
Agonist efficacy=[luciferase activity]1/[luciferase activity]2×100
The APRn “antagonist efficacy” was calculated from the following formula:
Antagonist efficacy=100−[luciferase activity]1/[luciferase activity]2×100
The results are the mean±SEM of three to five independent experiments.
All the synthesized APRn were classified in 4 series depending on the nature of their C3 substituent (R1/R′1 groups). The first one (series 1) includes APRn with no C3 substituent (R1═R′1═H) whereas series 2, 3 and 4 are related to APRn bearing a methoxyl (R1═OMe), a hydroxyl (R1═OH) and a fluorine atom (R1═F), respectively. The agonist/antagonist activities of APRn were determined either in human HEK293T cells transiently expressing hPRB or in human MDA-MB-231 iPRAB cells conditionally expressing hPRB, by using a luciferase reporter gene placed under the control of a glucocorticoid response element (GRE2-Luc). The APRn “agonist efficacy” was determined from the luciferase activity measured in the presence of APRn (1 μM). […] The “agonist efficacy” and “antagonist efficacy” are expressed as defined in the biological protocols section.

hMR = molecular target: T2, hMR (Homo sapiens, UniProt P08235); assay: APRn selectivity: transactivation in HEK293T cells transiently expressing hMR; assay type: cell-based; conditions: mean±SEM
T2 construct: expressed in transfected cells; host or cells: HEK 293T
T2 sequence (P08235 1-984): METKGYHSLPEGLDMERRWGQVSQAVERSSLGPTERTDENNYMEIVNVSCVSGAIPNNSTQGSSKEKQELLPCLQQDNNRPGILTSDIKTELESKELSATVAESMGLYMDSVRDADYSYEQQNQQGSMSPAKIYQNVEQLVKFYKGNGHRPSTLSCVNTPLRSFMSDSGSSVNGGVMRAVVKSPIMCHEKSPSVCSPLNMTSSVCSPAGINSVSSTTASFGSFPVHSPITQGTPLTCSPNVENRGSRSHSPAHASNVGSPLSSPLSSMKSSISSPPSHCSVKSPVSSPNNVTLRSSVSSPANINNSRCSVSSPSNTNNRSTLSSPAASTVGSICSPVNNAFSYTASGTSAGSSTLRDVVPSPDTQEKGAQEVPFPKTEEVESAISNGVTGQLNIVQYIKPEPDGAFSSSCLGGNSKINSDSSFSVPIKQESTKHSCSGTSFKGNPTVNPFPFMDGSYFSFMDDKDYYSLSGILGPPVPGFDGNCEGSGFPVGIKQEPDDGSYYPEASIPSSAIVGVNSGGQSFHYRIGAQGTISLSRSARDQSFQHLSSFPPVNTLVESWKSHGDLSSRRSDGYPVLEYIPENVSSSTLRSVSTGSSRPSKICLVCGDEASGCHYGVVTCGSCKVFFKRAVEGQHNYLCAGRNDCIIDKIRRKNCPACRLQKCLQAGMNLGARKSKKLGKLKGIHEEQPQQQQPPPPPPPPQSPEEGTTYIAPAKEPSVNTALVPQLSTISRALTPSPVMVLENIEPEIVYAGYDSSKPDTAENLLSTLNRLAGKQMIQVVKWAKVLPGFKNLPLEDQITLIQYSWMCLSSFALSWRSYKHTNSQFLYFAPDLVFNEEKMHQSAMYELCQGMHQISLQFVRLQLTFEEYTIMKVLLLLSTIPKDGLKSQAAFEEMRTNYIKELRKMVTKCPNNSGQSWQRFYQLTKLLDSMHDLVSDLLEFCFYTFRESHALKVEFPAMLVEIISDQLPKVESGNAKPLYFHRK
Method: (§1) Measurement of the APRn Selectivity in HEK 293T.
(§2) The HEK-293T cells were cultured and transfected according to the method described above for the PR transactivation assays. The expression vectors pcDNA-hAR, kindly provided by G. A. Coetzee, pchGR (Hellal-Levy, C et al. FEBS Lett 1999, 464, 9), and pchMR (Fagart, J. et al. EMBO J. 1998, 17, 3317) were used for studying the ability of APRn to activate or inactivate the AR, GR and MR, respectively. For each transfection assays, 2 μg of the expression vector was used together with 7 μg of the GRE2-Luc reporter vector. Dihydrotestosterone (DHT), dexamethasone (Dex) and Aldosterone (Aldo) were selected as AR, GR and MR ligands, respectively. They were used at the concentration of 10^−9 M. The APRn agonist and antagonist efficacy for AR, GR and MR were measured as described above for PR. The results are the mean±SEM of three independent experiments.
(§3) Transfection assays were performed in HEK 293T cells by using expression vectors for the hAR, hGR and hMR and the GRE2-Luc reporter used for the PR transactivation assays.

hGR = molecular target: T3, hGR (Homo sapiens, UniProt P04150); assay: APRn selectivity: transactivation in HEK293T cells transiently expressing hGR; assay type: cell-based; conditions: HEK293T transiently expressing hGR, mean±SEM; for GR Antagonist efficacy (%): dexamethasone 10^−9 M; for Emax: HEK-293T, read-out: GR Agonist efficacy (%)
T3 construct: expressed in transfected cells; host or cells: HEK 293T
T3 sequence (P04150 1-777): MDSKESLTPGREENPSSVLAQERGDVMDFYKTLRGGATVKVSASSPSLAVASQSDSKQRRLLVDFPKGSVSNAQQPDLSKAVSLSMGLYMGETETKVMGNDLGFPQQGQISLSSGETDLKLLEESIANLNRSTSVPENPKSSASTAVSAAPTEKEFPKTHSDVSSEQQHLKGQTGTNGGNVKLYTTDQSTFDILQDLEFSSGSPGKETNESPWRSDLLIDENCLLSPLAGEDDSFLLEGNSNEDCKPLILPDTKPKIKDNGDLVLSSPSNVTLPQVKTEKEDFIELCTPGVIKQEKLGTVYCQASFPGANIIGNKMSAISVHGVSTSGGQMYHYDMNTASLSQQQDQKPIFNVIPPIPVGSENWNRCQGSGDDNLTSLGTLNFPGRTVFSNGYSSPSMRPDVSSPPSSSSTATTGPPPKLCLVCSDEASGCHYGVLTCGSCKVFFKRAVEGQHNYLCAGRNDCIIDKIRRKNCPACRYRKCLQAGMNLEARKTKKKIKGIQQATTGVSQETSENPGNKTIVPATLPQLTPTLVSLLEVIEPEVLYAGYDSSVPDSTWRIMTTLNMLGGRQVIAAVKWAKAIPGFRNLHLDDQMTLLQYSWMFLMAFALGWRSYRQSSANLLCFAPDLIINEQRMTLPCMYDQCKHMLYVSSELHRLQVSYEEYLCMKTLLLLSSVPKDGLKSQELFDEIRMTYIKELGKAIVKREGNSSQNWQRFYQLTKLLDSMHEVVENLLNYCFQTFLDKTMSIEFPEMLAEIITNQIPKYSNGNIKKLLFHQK
Method: as §1, §2, §3

[1] = series 2-4, stated for both HEK293T and MDA-MB-231 iPRAB cells, FIGS. 3-8

C#CC(C)(O)[C@H]1CC[C@H]2[C@@H]3CC=C4C[C@@H](OC)CC[C@]4(C)[C@H]3CC[C@]12C (stereo partly drawn) [APR-31, 20-Ethynyl-3β-methoxypregn-5-en-20-ol]
melting point: 175 to 176 °C
hPRB agonist/antagonist character (in words) (hPRB; [1]): antagonist character without any agonist activity

C#C[C@]1(O)CCC2C3CC[C@H]4CCCC[C@]4(C)C3CC[C@@]21C (stereo partly drawn) [APR-32, 17α-Ethynyl-5α-androstan-17β-ol]
melting point: 152 to 153 °C
hPRB agonist/antagonist character (in words) (hPRB; series 1 (no C3 substituent), HEK293T, FIG. 1): full antagonists

C[C@]12CC[C@H](F)CC1=CC[C@@H]1[C@@H]2CC[C@]2(C)C(=O)CC[C@@H]12 [APR-33, 3β-Fluoroandrost-5-en-17-one]
melting point: 155 to 156 °C
hPRB agonist/antagonist character (in words) (hPRB; [1]): efficient hPRB antagonists

C#C[C@]1(O)CCC2C3CC=C4C[C@@H](F)CC[C@]4(C)C3CC[C@@]21C (stereo partly drawn) [APR-34, 17α-Ethynyl-3β-fluoro-androst-5-en-17β-ol]
melting point: 219 to 220 °C
hPRB agonist/antagonist character (in words) (hPRB; [1]): efficient hPRB antagonists

C[C@]12CC[C@H](F)C[C@@H]1CC[C@@H]1[C@@H]2CC[C@]2(C)C(=O)CC[C@@H]12 [APR-35, 3β-Fluoro-5α-androstan-17-one]
melting point: 126 to 127 °C
hPRB agonist/antagonist character (in words) (hPRB; [1]): efficient hPRB antagonists

C#C[C@]1(O)CCC2C3CC[C@H]4C[C@@H](F)CC[C@]4(C)C3CC[C@@]21C (stereo partly drawn) [APR-36, 17α-Ethynyl-3β-fluoro-5α-androstan-17β-ol]
melting point: 225 to 226 °C
hPRB agonist/antagonist character (in words) (hPRB; [1]): efficient hPRB antagonists

C[C@]12CC[C@H](F)C[C@@H]1CC[C@@H]1[C@@H]2CC[C@]2(C)[C@@H](O)CC[C@@H]12 [APR-40, 3β-Fluoro-5α-androstan-17β-ol]
MR Antagonist efficacy (%) (hMR; aldosterone 10^−9 M): 0.4 ± 2.6%
MR Agonist efficacy (%) (hMR): 0.57 ± 0.05%
GR Antagonist efficacy (%) (hGR): 5.5 ± 3.9%
Emax (hGR): 0.3 ± 0.06%
melting point: 150 to 151 °C

CC(=O)O[C@H]1CCC2C3CC=C4C[C@@H](F)CC[C@@H]4C3CC[C@@]21C (stereo partly drawn) [APR-45, 17β-Acetoxy-3β-fluoro-19-nor-androst-5-ene]
melting point: 104 to 105 °C
hPRB agonist/antagonist character (in words) (hPRB; [1]): efficient hPRB antagonists

C[C@]12CCC3C(CC=C4C[C@@H](F)CC[C@@H]43)C1CC[C@@H]2O (stereo partly drawn) [APR-46, 31-Fluoro-19-nor-androst-5-en-17β-ol]
melting point: 121 to 122 °C
hPRB agonist/antagonist character (in words) (hPRB; [1]): efficient hPRB antagonists

C#C[C@]1(O)CCC2C3CC=C4C[C@@H](F)CC[C@@H]4C3CC[C@@]21C (stereo partly drawn) [APR-50, 17α-Ethynyl-3β-fluoro-19-nor-androst-5-en-17β-ol]
GR Antagonist efficacy (%) (hGR): 7.4 ± 1.9%
Emax (hGR): 0.25 ± 0.1%
melting point: 149 to 150 °C

Source: patent US20130203718A1 (priority 2010, published 2013)
